The target of the experiment is Cathepsin-B (Homo sapiens, UniProt P07858). The experiment is described as follows: Non-caspase enzyme assay, Cathepsin-B. It counts as biochemical. The note with it: concentrations up to 10 µM. The protocol: Stock solutions were stored at −80 °C. […]
Non-caspase enzyme assays
The human pro- kallikrein-1 (pro-hK1) was activated in a buffer containing: Tris-HCl 50 mM, CaCl2 10 mM, NaCl 150 mM, Brij-35 0,05% pH 7,5. Human pro-kallikrein-6 and -8 (pro-hK6 and 8 were activated using Lysyl-endopeptidase (Wako- BioProducts®) at a 1/500 weight ratio, in a buffer containing 50 mM Tris and 0,05% Brij-35 (pH 8). Kinetics using non-caspase enzymes for selectivity studies were done according to the following conditions.
Enzymes Substrates Buffers
Cathepsine B (0.2 nM) z-RR-AMC 20 µM Acétate de sodium 0,1 M; EDTA 1mM ; […]
Cathepsine L (1.2 nM) RLR-AMC 25 µM Acétate de sodium 0,1 M; EDTA 1mM ; […]
Cathepsine D (0.1 nM) Mca-Gly-Ly s-Pro-Ile-Leu-Phe-Phe- Citrate de Sodium 0,1 M; EDTA 2 mM ; Arg-Leu-Lys(Dnp)-D-Arg-NH2 10 µM Brij-35 0,01%; pH 4 hK1 (4 nM) Boc-VPR-AMC 100µM Tris 50mM; Citrate 1M; Brij-35 0.05%; pH7 hK6 (2 nM ) Boc-QAR -AMC 100 µM Tris 50mM; Citrate 1M; Brij-35 0.05%; pH7 hK8 (1 nM) Boc-VPR-AMC 100µM Tris 50mM; Citrate 1M; Brij-35 0.05%; pH7
Thrombine (10 mU/mL) Boc-VPR-AMC 100µM Tris 50mM; Citrate 1M; Brij-35 0.05%; pH7 Plasmine (4 nM ) Boc-QAR -AMC 100µM Tris 50mM; Citrate 1M; Brij-35 0.05%; pH7 Trypsine (0.1 nM) Boc-QAR -AMC 100µM Tris 50mM; Citrate 1M; Brij-35 0.05%; pH7

With `CC(C)[C@H](NC(=O)c1ccc2ccccc2n1)C(=O)N[C@@H](CC(=O)O)C(=O)N[C@H](C(=O)N1CC[C@H](CC(C)(C)C)[C@@H]1C(=O)NC(CC(=O)O)C(=O)COc1c(F)cccc1F)C(C)C` (stereo partly shown) [LJ3a], the “effect on Cathepsin-B” value is “very limited or no effect”.

The record behind these values is publication PMC9666555, “Genuine selective caspase-2 inhibition with new irreversible small peptidomimetics” (Cell Death & Disease, 2022).
